According to the supplement of paper PMC10307832:

Columns and labels:
Test in all cases: relative viability (nuclei count vs DMSO), 5 days (fraction); higher = more cells survive
NCI-H358 = system: NCI-H358
Method in brief: (§1)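 Lung cancer cell lines in 1536-well plates were dosed by pin tool the day after seeding, either with one drug alone or with a fixed anchor-drug dose plus five library-drug doses (not always all listed) in √10 steps. After 5 days, cells were fixed and their nuclei stained in one step (final 0.05% Triton X-100, 1% formaldehyde, 1 ug/ml Hoechst), then counted on 4× images. Relative viability is the nuclei count in treated wells divided by that in vehicle wells. Values are medians of duplicate plates.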

H3255 = system: H3255
Method in brief: as §1

201T = system: 201T
Method in brief: as §1

NCI-H1651 = system: NCI-H1651
Method in brief: as §1

NCI-H1755 = system: NCI-H1755
Method in brief: as §1

NCI-H460 = system: NCI-H460
Method in brief: as §1

NCI-H322M = system: NCI-H322M
Method in brief: as §1

NCI-H1650 = system: NCI-H1650
Method in brief: as §1

NCI-H2085 = system: NCI-H2085
Method in brief: as §1

HCC-366 = system: HCC-366
Method in brief: as §1

NCI-H2087 = system: NCI-H2087
Method in brief: as §1

NCI-H522 = system: NCI-H522
Method in brief: as §1

Question: For `CCNC(=O)c1noc(-c2cc(C(C)C)c(O)cc2O)c1-c1ccc(CN2CCOCC2)cc1` [Luminespib] + N=C(N)NC(=N)NCCc1ccccc1 [Phenformin] (partner 250 µM), which relative viability (NCI-H358; first compound 0.02 µM) is on record?
Answer: 0.152

Question: What about the relative viability (NCI-H358; first compound 0.06325 µM) of the same compound?
Answer: 0.0546

Question: What about the relative viability (NCI-H358; first compound 0.2 µM) of the same compound?
Answer: 0.0585

Question: What about the relative viability (H3255; first compound 0.002 µM) of the same compound?
Answer: 0.328

Question: What about the relative viability (H3255; first compound 0.006325 µM) of the same compound?
Answer: 0.347

Question: And the relative viability (H3255; first compound 0.06325 µM)?
Answer: 0.319

Question: And the relative viability (H3255; first compound 0.2 µM)?
Answer: 0.187

Question: And the relative viability (201T; first compound 0.002 µM)?
Answer: 0.396

Question: And the relative viability (201T; first compound 0.006325 µM)?
Answer: 0.465

Question: What about the relative viability (201T; first compound 0.02 µM) of the same compound?
Answer: 0.477

Question: What about the relative viability (201T; first compound 0.06325 µM) of the same compound?
Answer: 0.373

Question: And the relative viability (201T; first compound 0.2 µM)?
Answer: 0.24

Question: What about the relative viability (NCI-H1651; first compound 0.002 µM) of the same compound?
Answer: 0.298

Question: And the relative viability (NCI-H1651; first compound 0.006325 µM)?
Answer: 0.293

Question: What about the relative viability (NCI-H1651; first compound 0.02 µM) of the same compound?
Answer: 0.304

Question: And the relative viability (NCI-H1651; first compound 0.06325 µM)?
Answer: 0.108

Question: What about the relative viability (NCI-H1651; first compound 0.2 µM) of the same compound?
Answer: 0.141

Question: What about the relative viability (NCI-H1755; first compound 0.002 µM) of the same compound?
Answer: 0.609

Question: What about the relative viability (NCI-H1755; first compound 0.006325 µM) of the same compound?
Answer: 0.552

Question: And the relative viability (NCI-H1755; first compound 0.02 µM)?
Answer: 0.552

Question: What about the relative viability (NCI-H1755; first compound 0.06325 µM) of the same compound?
Answer: 0.268

Question: And the relative viability (NCI-H1755; first compound 0.2 µM)?
Answer: 0.14

Question: What about the relative viability (NCI-H460; first compound 0.002 µM) of the same compound?
Answer: 0.616

Question: And the relative viability (NCI-H460; first compound 0.006325 µM)?
Answer: 0.458

Question: And the relative viability (NCI-H460; first compound 0.02 µM)?
Answer: 0.0329

Question: What about the relative viability (NCI-H460; first compound 0.06325 µM) of the same compound?
Answer: 0.0168

Question: What about the relative viability (NCI-H460; first compound 0.2 µM) of the same compound?
Answer: 0.0232

Question: What about the relative viability (NCI-H322M; first compound 0.002 µM) of the same compound?
Answer: 0.801

Question: And the relative viability (NCI-H322M; first compound 0.006325 µM)?
Answer: 0.729

Question: And the relative viability (NCI-H322M; first compound 0.02 µM)?
Answer: 0.717

Question: What about the relative viability (NCI-H322M; first compound 0.06325 µM) of the same compound?
Answer: 0.287

Question: And the relative viability (NCI-H322M; first compound 0.2 µM)?
Answer: 0.278

Question: And the relative viability (NCI-H1650; first compound 0.002 µM)?
Answer: 0.48

Question: What about the relative viability (NCI-H1650; first compound 0.006325 µM) of the same compound?
Answer: 0.219

Question: And the relative viability (NCI-H1650; first compound 0.02 µM)?
Answer: 0.165

Question: What about the relative viability (NCI-H1650; first compound 0.06325 µM) of the same compound?
Answer: 0.15

Question: And the relative viability (NCI-H1650; first compound 0.2 µM)?
Answer: 0.159

Question: And the relative viability (NCI-H2085; first compound 0.002 µM)?
Answer: 0.807

Question: And the relative viability (NCI-H2085; first compound 0.006325 µM)?
Answer: 0.713

Question: And the relative viability (NCI-H2085; first compound 0.02 µM)?
Answer: 0.408

Question: And the relative viability (NCI-H2085; first compound 0.06325 µM)?
Answer: 0.221

Question: And the relative viability (NCI-H2085; first compound 0.2 µM)?
Answer: 0.225

Question: And the relative viability (HCC-366; first compound 0.002 µM)?
Answer: 0.686

Question: What about the relative viability (HCC-366; first compound 0.006325 µM) of the same compound?
Answer: 0.59

Question: And the relative viability (HCC-366; first compound 0.02 µM)?
Answer: 0.697

Question: And the relative viability (HCC-366; first compound 0.06325 µM)?
Answer: 0.0486

Question: And the relative viability (HCC-366; first compound 0.2 µM)?
Answer: 0.0355

Question: And the relative viability (NCI-H2087; first compound 0.002 µM)?
Answer: 0.493

Question: And the relative viability (NCI-H2087; first compound 0.006325 µM)?
Answer: 0.362

Question: And the relative viability (NCI-H2087; first compound 0.02 µM)?
Answer: 0.267

Question: And the relative viability (NCI-H2087; first compound 0.06325 µM)?
Answer: 0.136

Question: What about the relative viability (NCI-H2087; first compound 0.2 µM) of the same compound?
Answer: 0.115

Question: And the relative viability (NCI-H522; first compound 0.002 µM)?
Answer: 0.707

Question: What about the relative viability (NCI-H522; first compound 0.006325 µM) of the same compound?
Answer: 0.657

Question: And the relative viability (NCI-H522; first compound 0.02 µM)?
Answer: 0.601

Question: And the relative viability (NCI-H522; first compound 0.06325 µM)?
Answer: 0.546

Question: What about the relative viability (NCI-H522; first compound 0.2 µM) of the same compound?
Answer: 0.362
